“And” between values parts separate entries of the source, which are not always exact repeats. Equal values may be shown once. Inconclusive results and toxic doses are left out. Starred links: 1 amine or outer side, 2 acyl side, 3 side chain; linkers in the order of their positions; H or OH if unused. Positions of bridges follow the written chain, without caps; N, C: chain ends. Non-standard residues stand in square brackets, D forms with d. Residues, ends and D or L forms follow the SMILES beside them. Chains are numbered I, II in the order given. Actinocin(1to9) = Cc1c2oc3c(C)ccc(C(=O)[*:2])c3nc-2c(C(=O)[*:1])c(N)c1=O; NMeV = CN[CH](C(=O)O)C(C)C; Sar = CNCC(=O)O
Tested on: CD2F1 mice, L1210 leukemia ip, survival T/C
Assay: NCI In Vivo Anticancer Drug Screen. Data for tumor model L1210 Leukemia (intraperitoneal) in CD2F1 (CDF1) mice
Conditions: higher = longer survival
Outline: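 Read-out first: treated-group measurement over vehicle-control measurement, expressed as a ratio. Animals bore a transplanted tumor line and were dosed with compound or vehicle.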

[1] = endpoint: mean survival time, dose: 50.0 mg/kg/injection, schedule: Q01DX009 (ip), vehicle: saline with Tween-80
[2] = endpoint: mean survival time, dose: 100.0 mg/kg/injection, schedule: Q01DX009 (ip), vehicle: saline with Tween-80
[3] = endpoint: mean survival time, dose: 200.0 mg/kg/injection, schedule: Q01DX009 (ip), vehicle: saline with Tween-80
[4] = endpoint: mean survival time, dose: 100.0 mg/kg/injection, schedule: Q04DX003 (ip), vehicle: saline with Tween-80
[5] = endpoint: mean survival time, dose: 200.0 mg/kg/injection, schedule: Q04DX003 (ip), vehicle: saline with Tween-80
[6] = endpoint: mean survival time, dose: 400.0 mg/kg/injection, schedule: Q04DX003 (ip), vehicle: saline with Tween-80
[7] = endpoint: mean survival time, dose: 100.0 mg/kg/injection, schedule: Q01DX001 (ip), vehicle: saline
[8] = endpoint: mean survival time, dose: 50.0 mg/kg/injection, schedule: Q01DX009 (ip), vehicle: Klucel (hydroxypropylcellulose) (HPC)
[9] = endpoint: mean survival time, dose: 100.0 mg/kg/injection, schedule: Q01DX009 (ip), vehicle: Klucel (hydroxypropylcellulose) (HPC)
[10] = endpoint: mean survival time, dose: 200.0 mg/kg/injection, schedule: Q01DX009 (ip), vehicle: Klucel (hydroxypropylcellulose) (HPC)

For C/C=C\c1ccc(OCCOC(=O)Nc2c(Cl)cccc2Cl)c(OC)c1, the T/C (endpoint: mean survival time, dose: 12.5 mg/kg/injection, schedule: Q01DX009 (ip), vehicle: saline with Tween-80) was 103 % of control, the T/C (endpoint: mean survival time, dose: 25.0 mg/kg/injection, schedule: Q01DX009 (ip), vehicle: saline with Tween-80) was 97 % of control and the T/C [1] was 94 % of control and 99 % of control. The T/C [2] was 94 % of control and the T/C [3] was 94 % of control.
COc1ccc(NC(=O)Nc2ccccc2F)cc1 was tested, and the T/C [4] was 102 % of control, the T/C [5] was 101 % of control and the T/C [6] was 95 % of control.
For COc1ccc(C(=O)C(O)c2ccccc2)cc1 (configuration not stated), the T/C (endpoint: mean survival time, dose: 100.0 mg/kg/injection, schedule: Q04DX003 (ip), vehicle: other) was 97 % of control, the T/C (endpoint: mean survival time, dose: 200.0 mg/kg/injection, schedule: Q04DX003 (ip), vehicle: other) was 92 % of control and the T/C (endpoint: mean survival time, dose: 400.0 mg/kg/injection, schedule: Q04DX003 (ip), vehicle: other) was 92 % of control.
With Brc1ccc2c(c1)C(Br)c1ccccc1-2 (configuration not stated) the T/C [1] was 105 % of control, the T/C [2] was 103 % of control and the T/C [4] was 101 % of control. For the same molecule, the T/C [3] was 100 % of control and the T/C [5] was 101 % of control.
With NC1CCCCC1N.O=C([O-])c1ccc(N=Nc2cccc([N+](=O)[O-])c2)cc1[O-].[Pt+4] the T/C (endpoint: median survival time, dose: 3.12 mg/kg/injection, schedule: Q04DX003 (ip), vehicle: saline with Tween-80) was 105 % of control and 109 % of control, the T/C (endpoint: median survival time, dose: 6.25 mg/kg/injection, schedule: Q04DX003 (ip), vehicle: saline with Tween-80) was 102 % of control and 110 % of control and the T/C (endpoint: median survival time, dose: 12.5 mg/kg/injection, schedule: Q04DX003 (ip), vehicle: saline with Tween-80) was 113 % of control. The T/C (endpoint: median survival time, dose: 25.0 mg/kg/injection, schedule: Q04DX003 (ip), vehicle: saline with Tween-80) was 116 % of control and 123 % of control, the T/C (endpoint: median survival time, dose: 50.0 mg/kg/injection, schedule: Q04DX003 (ip), vehicle: saline with Tween-80) was 123 % of control and the T/C (endpoint: median survival time, dose: 100.0 mg/kg/injection, schedule: Q04DX003 (ip), vehicle: saline with Tween-80) was 156 % of control. For the same molecule, the T/C (endpoint: median survival time, dose: 200.0 mg/kg/injection, schedule: Q04DX003 (ip), vehicle: saline with Tween-80) was 166 % of control and 313 % of control.
CCCC1(c2ccccc2)C(=O)NCNC1=O was tested, and the T/C (endpoint: median survival time, dose: 25.0 mg/kg/injection, schedule: Q01DX005 (ip), vehicle: Klucel (hydroxypropylcellulose) (HPC)) was 101 % of control, the T/C (endpoint: median survival time, dose: 50.0 mg/kg/injection, schedule: Q01DX005 (ip), vehicle: Klucel (hydroxypropylcellulose) (HPC)) was 97 % of control and the T/C (endpoint: median survival time, dose: 100.0 mg/kg/injection, schedule: Q01DX005 (ip), vehicle: Klucel (hydroxypropylcellulose) (HPC)) was 97 % of control. For the same molecule, the T/C (endpoint: median survival time, dose: 200.0 mg/kg/injection, schedule: Q01DX005 (ip), vehicle: Klucel (hydroxypropylcellulose) (HPC)) was 94 % of control and the T/C (endpoint: median survival time, dose: 400.0 mg/kg/injection, schedule: Q01DX005 (ip), vehicle: Klucel (hydroxypropylcellulose) (HPC)) was 104 % of control.
In the case of NCc1ccccc1, the T/C [2] is reported as 96 % of control, the T/C (endpoint: mean survival time, dose: 100.0 mg/kg/injection, schedule: Q04DX003 (ip), vehicle: acetone) is reported as 110 % of control and the T/C [4] is reported as 99 % of control. The T/C [3] was 100 % of control, the T/C (endpoint: mean survival time, dose: 200.0 mg/kg/injection, schedule: Q04DX003 (ip), vehicle: acetone) was 108 % of control and the T/C [5] was 99 % of control. For the same molecule, the T/C (endpoint: mean survival time, dose: 400.0 mg/kg/injection, schedule: Q01DX009 (ip), vehicle: saline with Tween-80) was 98 % of control, the T/C (endpoint: mean survival time, dose: 400.0 mg/kg/injection, schedule: Q04DX003 (ip), vehicle: acetone) was 97 % of control and the T/C [6] was 97 % of control.
CC[C@@]1(OP(=O)(O)O)C(=O)OCc2c1cc1n(c2=O)Cc2cc3ccccc3nc2-1 was tested, and the T/C (endpoint: median survival time, dose: 5.5 mg/kg/injection, schedule: Q04DX002 (ip), vehicle: water) was 111 % of control and 112 % of control, the T/C (endpoint: median survival time, dose: 8.25 mg/kg/injection, schedule: Q04HX004 (iv), vehicle: water) was 154 % of control and the T/C (endpoint: median survival time, dose: 11.0 mg/kg/injection, schedule: Q04DX002 (ip), vehicle: water) was 119 % of control and 104 % of control. For the same molecule, the T/C (endpoint: median survival time, dose: 16.5 mg/kg/injection, schedule: Q04HX004 (iv), vehicle: water) was 158 % of control and 180 % of control, the T/C (endpoint: median survival time, dose: 33.0 mg/kg/injection, schedule: Q04HX004 (iv), vehicle: water) was 177 % of control and 221 % of control and the T/C (endpoint: median survival time, dose: 44.0 mg/kg/injection, schedule: Q04DX002 (ip), vehicle: water) was 158 % of control and 192 % of control. For the same molecule, the T/C (endpoint: median survival time, dose: 44.0 mg/kg/injection, schedule: Q04HX004 (iv), vehicle: water) was 207 % of control.
In the case of CCCCC(CC)CNC(=O)CI (configuration not stated), the T/C [7] is reported as 96 % of control.
For O=C1C=CC(=O)N1c1cccc(N2C(=O)C=CC2=O)c1, the T/C (endpoint: mean survival time, dose: 4.0 mg/kg/injection, schedule: Q01DX009 (ip), vehicle: saline) was 96 % of control and the T/C (endpoint: mean survival time, dose: 8.0 mg/kg/injection, schedule: Q01DX009 (ip), vehicle: saline) was 106 % of control.
For O=C(O)/C=C/C(=O)Nc1cccc2ccccc12, the T/C [1] was 105 % of control, the T/C [2] was 100 % of control and the T/C [4] was 95 % of control. For the same molecule, the T/C [3] was 89 % of control and the T/C [5] was 105 % of control.
In the case of CCC(C)C1NC(=O)C(NC(=O)c2c3nc4c(C(=O)NC5C(=O)NC(C(C)CC)C(=O)N6CCCC6C(=O)N(C)CC(=O)N(C)C(C(C)C)C(=O)OC5C)ccc(C)c4oc-3c(C)c(=O)c2N)C(C)OC(=O)C(C(C)C)N(C)C(=O)CN(C)C(=O)C2CCCN2C1=O (configuration not stated) (I: TIP[Sar][NMeV] / II: TIP[Sar][NMeV]; ester I:1-I:C, II:1-II:C; linker I:N-II:N via Actinocin(1to9); configuration not given here), the T/C (endpoint: mean survival time, dose: 0.25 mg/kg/injection, schedule: Q01DX001 (ip), vehicle: saline) is reported as 112 % of control and the T/C (endpoint: mean survival time, dose: 0.5 mg/kg/injection, schedule: Q01DX001 (ip), vehicle: saline) is reported as 120 % of control.
COc1cccc2c1CCN1C3=C(CC(OC)CC3)C(=O)CC21 (configuration not stated) was tested, and the T/C (endpoint: mean survival time, dose: 25.0 mg/kg/injection, schedule: Q04DX002 (ip), vehicle: saline with Tween-80) was 93 % of control, the T/C (endpoint: mean survival time, dose: 50.0 mg/kg/injection, schedule: Q04DX002 (ip), vehicle: saline with Tween-80) was 104 % of control and the T/C (endpoint: mean survival time, dose: 100.0 mg/kg/injection, schedule: Q04DX002 (ip), vehicle: saline with Tween-80) was 96 % of control. The T/C [4] was 101 % of control.
Cc1ccc2nc(-c3ccc4nc(-c5ccc(N)cc5)sc4c3)sc2c1 was tested, and the T/C [1] was 94 % of control, the T/C [2] was 97 % of control and the T/C [3] was 94 % of control.
CC(=O)OC/C=C(C)/C=C/C=C(C)/C=C/C1=C(C)CCCC1(C)C was tested, and the T/C (endpoint: mean survival time, dose: 200.0 mg/kg/injection, schedule: Q01DX001 (ip), vehicle: steriod suspending solution) was 96 % of control, the T/C (endpoint: mean survival time, dose: 200.0 mg/kg/injection, schedule: Q01DX009 (ip), vehicle: steriod suspending solution) was 96 % of control and the T/C (endpoint: mean survival time, dose: 400.0 mg/kg/injection, schedule: Q01DX001 (ip), vehicle: steriod suspending solution) was 102 % of control. For the same molecule, the T/C (endpoint: mean survival time, dose: 400.0 mg/kg/injection, schedule: Q01DX009 (ip), vehicle: steriod suspending solution) was 93 % of control, the T/C (endpoint: mean survival time, dose: 800.0 mg/kg/injection, schedule: Q01DX001 (ip), vehicle: steriod suspending solution) was 92 % of control and the T/C (endpoint: mean survival time, dose: 800.0 mg/kg/injection, schedule: Q01DX009 (ip), vehicle: steriod suspending solution) was 86 % of control. The T/C (endpoint: mean survival time, dose: 1600.0 mg/kg/injection, schedule: Q01DX001 (ip), vehicle: steriod suspending solution) was 92 % of control.
CCCCOCCOCCOCc1cc2c(cc1CCC)OCO2 was tested, and the T/C [8] was 96 % of control, the T/C [9] was 89 % of control and the T/C [10] was 100 % of control.
With Cc1ccc(S(=O)(=O)N(CC(=O)O)c2cccc(Cl)c2)cc1 the T/C [9] was 101 % of control, the T/C [10] was 98 % of control and the T/C (endpoint: mean survival time, dose: 400.0 mg/kg/injection, schedule: Q01DX009 (ip), vehicle: Klucel (hydroxypropylcellulose) (HPC)) was 100 % of control.
CSc1nc2c(c(=O)[nH]1)c1c(N)ncnc1n2C1OC(CO)C(O)C1O (configuration not stated) was tested, and the T/C (endpoint: mean survival time, dose: 25.0 mg/kg/injection, schedule: Q01DX005 (ip), vehicle: water) was 88 % of control, the T/C (endpoint: mean survival time, dose: 50.0 mg/kg/injection, schedule: Q01DX005 (ip), vehicle: water) was 94 % of control and the T/C (endpoint: mean survival time, dose: 100.0 mg/kg/injection, schedule: Q01DX005 (ip), vehicle: water) was 88 % of control. The T/C (endpoint: mean survival time, dose: 200.0 mg/kg/injection, schedule: Q01DX005 (ip), vehicle: water) was 100 % of control.
For O/N=C1\C=C2C/C(=N/O)C=C2C1, the T/C [1] was 100 % of control, the T/C [2] was 96 % of control and the T/C [3] was 96 % of control.
In the case of OCC1OC(n2c(SCc3ccccc3)nc3ccccc32)C(O)C1O (configuration not stated), the T/C [7] is reported as 102 % of control, the T/C (endpoint: mean survival time, dose: 200.0 mg/kg/injection, schedule: Q01DX001 (ip), vehicle: saline) is reported as 102 % of control and the T/C (endpoint: mean survival time, dose: 400.0 mg/kg/injection, schedule: Q01DX001 (ip), vehicle: saline) is reported as 97 % of control.
For CC(=O)OCC1OC([S][Sb]([CH3])[CH3])C(OC(C)=O)C(OC(C)=O)C1OC(C)=O (configuration not stated), the T/C [8] was 92 % of control.
Cc1cc2nc3ccc(=[N+](C)C)cc-3sc2cc1N was tested, and the T/C (endpoint: mean survival time, dose: 25.0 mg/kg/injection, schedule: Q04DX003 (ip), vehicle: saline) was 109 % of control and the T/C (endpoint: mean survival time, dose: 50.0 mg/kg/injection, schedule: Q04DX003 (ip), vehicle: saline) was 102 % of control.
